Columns and labels:
[1] = system: PCP induced hyperactivity in male mice (NMRI); assay: Phencyclidine (PCP) induced hyperactivity; format: in vivo; settings: at 5 mg/kg, per os 60 min before PCP 2.3 mg/kg s.c.
Procedure: Male mice (NMRI, Charles River) weighing 20-25 g are used. Eight mice are used in each group receiving the test compound (5 mg/kg) plus PCP (2.3 mg/kg) including the parallel control groups receiving the vehicle of the test compound plus PCP or vehicle injections only. The injection volumen is 10 ml/kg. The experiment is made in normal light conditions in an undisturbed room. The test substance is injected per oss 60 min before injection of PCP, which is administered subcutaneous.
Immediately after injection of PCP the mice are placed individually in special designed test cage (20 cm×32 cm). The activity is measured by 5×8 infrared light sources and photocells spaced by 4 cm. The light beams cross the cage 1.8 cm above the bottom of the cage. Recording of a motility count requires interruption of adjacent light beams, thus avoiding counts induced by stationary movements of the mice.
Motility is recorded in 5 min intervals for a period of 1 hour. The drug effect is calculated on the total counts during the 1 hour behavioral test period in the following manner. […] The 100 percent effect of PCP is accordingly calculated to be total motility counts minus baseline. The response in groups receiving test compound is thus determined by the total motility counts minus baseline, expressed in percent of the similar result recorded in the parallel PCP control group. […]

[2] = system: hyperactivity in rats induced by PCP; settings: cited from earlier work
catalepsy in rats = settings: cited from earlier work

SMILES	Inhibition of PCP induced hyperactivity [1] [%]	Effect on hyperactivity induced by PCP [2]	Effect on the cataleptic effect of the D2 receptor antagonist haloperidol (catalepsy in rats; combined with haloperidol)	Catalepsy on its own (catalepsy in rats; papaverine alone)
Cc1ncc(C)n2nc(CCc3cn4c(n3)-c3ccccc3C4)nc12 [2-[-2-(5,8-Dimethyl-[1,2,4]triazolo[1,5-a]pyrazin-2-yl)-ethyl]-5H-imidazo[2,1-a]isoindole]	100			
COc1ccc(Cc2nccc3cc(OC)c(OC)cc23)cc1OC [Papaverine]		reduced hyperactivity	potentiated the cataleptic effect	did not cause catalepsy on its own

Source: patent publication US9062060B2, “Substituted imidazo[2,1-A]isoindoles as PDE10 inhibitors” (H. Lundbeck A/S, priority 2010, dated 2015)
